# In US11426441B2, “Composition comprising protein phosphatase 1 inhibitory peptide for treating vascular diseases” (BethphaGen Inc., priority 2016, dated 2022):
# No end group written: not given here.
# Legend:
# [1] = test system: balloon-injured rat carotid arteries; test: Balloon-induced injury of rat carotid artery; format: in vivo
# From the text: The left common carotid artery was injured by an infiltration of 2F Fogarty balloon embolectomy catheter. In brief, the rats were anesthetized with isoflurane gas (70% N2O/30% O2), the left external carotid artery was exposed, and branches thereof were electro-coagulated. A catheter was inserted approximately 1 cm into the external carotid artery via a transverse arteriotomy, and endothelial denudation was achieved by three passes of the catheter along the common carotid artery. After removal of the catheter, the penetrated area was clamped, and 5 μg of the peptides solubilized in 200 μL of phosphate-buffered saline (PBS) was injected. After incubation for 15 minutes, the sealed carotid artery was re-opened to resume blood flow. The rats were allowed to recover for 10 days, unless otherwise stated. For histological analyses, the rats were anesthetized, and the common carotid artery was excised after transcardiac perfusion with heparinized saline containing 3.7% (w/v) formaldehyde. The specimens were embedded in paraffin, and paraffin blocks were sectioned with the Leica RM2255 rotary microtome. Two serial tissue sections (thickness, 4 μm) were obtained from the centre of the common carotid artery and stained with haematoxylin and eosin. The lamina, internal elastic lamina, and external elastic lamina were measured with the National Institutes of Health ImageJ software (version 1.62). The intimal and medial areas were determined by subtracting the laminal area from the internal elastic laminal area and by subtracting the internal elastic laminal area from the external elastic laminal area, respectively. The values from two serial sections per rat were averaged for analysis.
# The carotid artery was fixed in 4% (w/v) paraformaldehyde for 48 hours at room temperature and then washed with PBS. After embedding the specimens in paraffin and sectioning the tissue blocks, the sections were treated with hydrogen peroxide to quench endogenous peroxidase activity, followed by boiling in antigen retrieval buffer. […]
# SERCA2a [2] = test: A23187-induced SERCA2a degradation in HCSMCs; format: cell-based, human; conditions: HCSMCs pretreated 1 hour with 3 μM ψPLB-SE or 15 μM MDL28170, then 50 μM A23187 2 hours
# Procedure: FIGS. 4a, 4b, 4c and 4d. (4a-4c) HCSMCs were pretreated with 3 μM ψPLB-SE and 15 μM MDL28170 for 1 hour, and then treated with 50 μM A23187 for 2 hours. (4a) Immunostaining was performed with antibodies against SERCA2a and SERCA2b (green). Nuclei were stained with Hoechst (blue). Representative merged images are shown. Scale bar, 50 μm. (4b) Western blot analysis was performed with cell extracts. Data are expressed as the means±SD (n=3-4; *, P<0.05). (4c) Baseline Ca^2+ concentration was measured by lonOptix calcium imaging system. (4d) RASMC were treated with ψPLB-SE or control peptide under the same conditions as described for FIG. 1B. The baseline Ca^2+ concentration was measured by lonOptix calcium imaging system (*, P<0.05).
# The rat aortic smooth muscle cells (RASMCs) were isolated from the medial layer of the thoracic aorta derived from male Sprague-Dawley rats (body weight, 180-200 g) by an enzymatic reaction with collagenase (50 U/mL, Worthington) and pancreatic elastase (0.25 mg/mL, Sigma-Aldrich) for 4 hours at 37. The cells were collected and resuspended in DMEM containing 20% (v/v) fetal bovine serum. The resuspension was then plated on collagen I (Sigma-Aldrich)-coated glass coverslips and incubated at 37 in an atmosphere of 5% (v/v) CO2 and 95% (v/v) air. Human coronary smooth muscle cells (HCSMCs), pulmonary arterial endothelial cells (PAECs), and pulmonary arterial smooth muscle cells (PASMCs) were purchased from Lonza and cultured in EBM or SmBM (Lonza) supplemented with 0.5 mg/mL hEGF, […], 1 mg/mL hFGF, […] gentamicin/amphotericin-B, and 5% fetal bovine serum. All the cells were cultured at 37 in 5% (v/v) CO2 and 95% (v/v) air. RASMCs and HCSMCs were, respectively, plated at the densities of 1×10^4 cells/cm^2 and 1×10^5 cells/cm^2 for immunostaining and western blotting experiments. […]
# Vascular smooth muscle cells (VSMCs) were homogenized in a minimal volume of 50 mM Tris-HCl, pH 7.4, supplemented with a broad-spectrum protease inhibitor cocktail (Calbiochem). […] The blots were scanned and quantified using LAS software.
# phospholamban = test: PLB phosphorylation in PASMCs (western blotting); format: cell-based; conditions: synthetic phenotype, 3 μM
# Procedure: PASMCs were incubated in DMEM supplemented with 0.1% (v/v) FBS for 3 days to induce a contractile phenotype, followed by incubation in DMEM supplemented with 10% (v/v) FBS for 3 days to induce a synthetic phenotype in the presence of 3 μM ψPLB-SE. (18a) Protein expression was quantitatively analyzed through western blotting using antibodies against phospho-PLB (ser16), total PLB, and GAPDH. Data are expressed as the means±SD (n=3˜4; *, P<0.05 vs contractile; #, P<0.05 vs Synthetic-con).
# Human coronary smooth muscle cells (HCSMCs), pulmonary arterial endothelial cells (PAECs), and pulmonary arterial smooth muscle cells (PASMCs) were purchased from Lonza and cultured in EBM or SmBM (Lonza) supplemented with 0.5 mg/mL hEGF, 5 mg/mL insulin, 1 mg/mL hFGF, 50 mg/mL gentamicin/amphotericin-B, and 5% fetal bovine serum. All the cells were cultured at 37 in 5% (v/v) CO2 and 95% (v/v) air. RASMCs and HCSMCs were, respectively, plated at the densities of 1×10^4 cells/cm^2 and 1×10^5 cells/cm^2 for immunostaining and western blotting experiments.
# SERCA2a [3] = test: Calcium uptake assay (SERCA2a activity) in PASMCs; format: biochemical; conditions: synthetic phenotype, 3 μM
# Procedure: Pulmonary arterial smooth muscle cells (PASMCs) were homogenized in a solution of pH 7.0 containing 40 mM imidazole, 10 mM NaF, 1 mM EDTA, 300 mM sucrose, and 0.5 mM DTT, and 250 μg of the lysate was added to an uptake buffer of pH 7.0 containing 100 mM KCl, 5 mM MgCl2, 5 mM NaN3, […], and 40 mM imidazole, and calcium uptake assay was performed with a calcium concentration of pCa 6, containing radioactive isotopes. The cells were treated with 1 μM ruthenium red (Sigma Aldrich), followed by waiting at 37° C. for 3 min, and then treated with 5 mM K-oxalate and Mg-ATP (Sigma Aldrich). In addition, 500 μl of the reaction material was filtered out through a 0.45 μm filter (Millipore) from the start of a reaction to 4 minutes at intervals of 1 minute, and cpm (count per minute) was measured using a scintillation counter (Beckman).
sequence,measurement,setting,value
"RAETIEMPQ (not fully specified) [ψPLB-SE, 9-mer PP1 decoy peptide mimicking phosphorylated PLB; conjugated via GGG linker to cell penetrating peptide dNP2 or TAT]","in vivo VSMC proliferation (α-SMA, PCNA immunostaining)","[1]; balloon-injured rat carotid artery, peptide administered to the injured site",inhibits
same,neointimal formation (haematoxylin and eosin staining),"[1]; balloon-injured rat carotid artery, peptide administered to the injured site, compared with control peptide",inhibited
same,reduction of SERCA2a level by balloon angioplasty-mediated injury (immunostaining),[1]; carotid artery sections,inhibited
same,A23187 (Ca^2+)-dependent degradation of SERCA2a,SERCA2a [2],completely inhibited
same,phosphorylation of the serine 16 residue of phospholamban,phospholamban,restored
same,SERCA2a activity (Ca^2+ uptake assay),SERCA2a [3],restored
